The source of these data is ChEMBL document CHEMBL1201862, “PubChem BioAssay data set” (2004).

Test systems include SNB-75; SF-295; SR; CAKI-1; KM12; SW-620; LOX IMVI; NCI/ADR-RES; UO-31; HL-60; MDA-MB-231; 786-0; DU-145; ACHN; SN12C; M14; MCF7; HOP-92; SF-539; OVCAR-4.
Test in all cases: inhibition of tumour cell growth, NCI panel, 48 h

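48-hour exposure; five concentrations; linearly interpolated endpoints. GI50 marks 50% less growth.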 Active and inactive are the calls of the source. No stated cut-off is given here; in the data, active = GI50 up to about 1.1 µM and inactive = higher.

Turning to `O=C(O)/C=C/C(=O)N1Cc2cc3ccccc3nc2C1`, the GI50 with SNB-75, in the assay with SF-295, in the assay on SR, in the assay on CAKI-1, in the assay with KM12 and in the assay with SW-620 was > 100 µM (inactive) each time. In addition, the GI50 with LOX IMVI, in the assay on NCI/ADR-RES, in the assay with UO-31, in the assay with HL-60, with MDA-MB-231 and in the assay on 786-0 was > 100 µM (inactive) throughout. Also, the GI50 in the assay with DU-145, in the assay with ACHN, with SN12C, in the assay with M14, with MCF7 and in the assay with HOP-92 was > 100 µM (inactive) throughout. Further, the GI50 with SF-539 is > 100 µM (inactive).
As to `NCCC1CN(C(=O)OCc2ccccc2)c2ccccc21` (configuration not stated), the GI50 in the assay on SNB-75 is 12.3 µM (inactive); in the assay on SF-295, 18.3 µM (inactive); with SR it was 2.9 µM (inactive); with CAKI-1, 21.4 µM (inactive); in the assay with KM12, 17.8 µM (inactive); in the assay on SW-620, 6.67 µM (inactive). For the same compound, the GI50 with LOX IMVI is 4.12 µM (inactive); in the assay with NCI/ADR-RES, 15.1 µM (inactive); with OVCAR-4, 20.4 µM (inactive); in the assay with UO-31, 12.7 µM (inactive); with MDA-MB-231, 19.1 µM (inactive); in the assay on 786-0, 16.1 µM (inactive). Also, the GI50 in the assay with DU-145 is 17.3 µM (inactive); with ACHN, 22.6 µM (inactive); in the assay on SN12C it was 13.2 µM (inactive); with M14, 13.8 µM (inactive); in the assay with MCF7, 1.01 µM (active); in the assay on HOP-92, 5.45 µM (inactive). The GI50 in the assay with SF-539 is 3.44 µM (inactive).
On to `O=C1OC[C@@H]2[C@@H](O)CCCCCN12`, for which the GI50 in the assay with SNB-75, in the assay on SF-295, in the assay on SR, in the assay on CAKI-1, with KM12 and in the assay with SW-620 was > 100 µM (inactive) each time. Moreover, the GI50 in the assay with LOX IMVI, with NCI/ADR-RES, with OVCAR-4, in the assay with UO-31, with HL-60 and with MDA-MB-231 was > 100 µM (inactive) each time. Further, the GI50 is > 10 µM (inactive) with 786-0; > 100 µM (inactive) in the assay with DU-145; > 100 µM (inactive) with ACHN; > 100 µM (inactive) in the assay on SN12C; > 100 µM (inactive) in the assay with MCF7; > 100 µM (inactive) in the assay on HOP-92. The GI50 with SF-539 is > 100 µM (inactive).
As for `O=C(c1ccccc1)c1c(-c2ccccc2)n(-c2ccccc2)[nH]c(=O)c1=O`, the GI50 in the assay with SF-295 was 28.2 µM (inactive); with SR it was 23.8 µM (inactive); in the assay on CAKI-1, 37.6 µM (inactive); with KM12, 54.3 µM (inactive); with LOX IMVI, 25.6 µM (inactive); in the assay with NCI/ADR-RES, 62.4 µM (inactive). For the same compound, the GI50 was 32.6 µM (inactive) with OVCAR-4; 48.4 µM (inactive) in the assay with UO-31; 32.2 µM (inactive) in the assay with HL-60; 20.2 µM (inactive) in the assay with MDA-MB-231; 31.2 µM (inactive) in the assay with 786-0; > 100 µM (inactive) in the assay with DU-145. In addition, the GI50 in the assay on ACHN is 22.2 µM (inactive); with SN12C, 69 µM (inactive); in the assay with M14 it was > 100 µM (inactive); in the assay on MCF7 it was 46.7 µM (inactive); with HOP-92 it was 31.2 µM (inactive); with SF-539, 20.2 µM (inactive).
With `COC1CC(C)(N)C(O)C(C)O1` (configuration not stated), the GI50 in the assay on SNB-75, with SF-295, with SR, in the assay with CAKI-1, in the assay on KM12 and in the assay on SW-620 was > 100 µM (inactive) throughout. The GI50 in the assay with LOX IMVI, in the assay with NCI/ADR-RES, in the assay on UO-31, in the assay with HL-60, in the assay on MDA-MB-231 and in the assay on 786-0 was > 100 µM (inactive) throughout. Moreover, the GI50 in the assay with DU-145, in the assay on ACHN, with SN12C, in the assay with M14, in the assay on MCF7 and in the assay with HOP-92 was > 100 µM (inactive) each time. In the assay with SF-539, the GI50 is > 100 µM (inactive).
Turning to `CCCCCC(=O)N[C@@H](c1ccccc1)C(O)C(=O)OC1C[C@@]2(O)C(OC(=O)c3ccccc3)C3[C@](C)(C(=O)[C@H](O)C(=C1C)C2(C)C)C(OC1OCC(O)C(O)C1O)C[C@H]1OC[C@@]31OC(C)=O` (some centres not stated), the GI50 with SNB-75 is 0.147 µM (active); in the assay on SF-295, 21.2 µM (inactive); in the assay with SR, 2.41 µM (inactive); in the assay on KM12, 1.21 µM (inactive); with SW-620, 16.1 µM (inactive); in the assay with NCI/ADR-RES, > 100 µM (inactive). In addition, the GI50 was > 100 µM (inactive) in the assay with OVCAR-4; > 75.9 µM (inactive) in the assay with UO-31; 0.542 µM (active) in the assay with HL-60; 67.6 µM (inactive) in the assay on MDA-MB-231; 4.93 µM (inactive) with 786-0; 2.88 µM (inactive) with DU-145. For the same compound, the GI50 in the assay on ACHN was > 89.1 µM (inactive); in the assay with SN12C, 3.54 µM (inactive); in the assay with M14 it was 2.32 µM (inactive); with MCF7, 1.02 µM (active); in the assay on HOP-92, 24.6 µM (inactive); in the assay with SF-539 it was 0.494 µM (active).
Regarding `OCC1OC(NCCNCCNC2OC(CO)C(O)C(O)C2O)C(O)C(O)C1O` (configuration not stated), the GI50 with SNB-75, in the assay with SF-295, with SR, with SW-620, with LOX IMVI and with NCI/ADR-RES was > 100 µM (inactive) in each case. In addition, the GI50 in the assay on UO-31, with HL-60, in the assay with MDA-MB-231, in the assay with 786-0, in the assay on DU-145 and in the assay with ACHN was > 100 µM (inactive) each time. Further, the GI50 in the assay with SN12C, in the assay on M14, with MCF7, in the assay on HOP-92 and in the assay on SF-539 was > 100 µM (inactive) throughout.
As to `CC(=O)O[C@H]1CC[C@@]2(C)C(=CC[C@@H]3[C@@H]2CC[C@]2(C)c4c(C)n[nH]c4C[C@@H]32)C1`, the GI50 is 12.2 µM (inactive) in the assay with SNB-75; 20.4 µM (inactive) with SF-295; 22.3 µM (inactive) with SR; 16.8 µM (inactive) in the assay on CAKI-1; 15.3 µM (inactive) in the assay with KM12; 16.9 µM (inactive) in the assay with SW-620. The GI50 in the assay with LOX IMVI was 31.5 µM (inactive); in the assay with NCI/ADR-RES, 26.1 µM (inactive); in the assay with OVCAR-4, 15.7 µM (inactive); in the assay with UO-31, 17.7 µM (inactive); in the assay with HL-60, 10.1 µM (inactive); in the assay with MDA-MB-231 it was 21.1 µM (inactive). Moreover, the GI50 was 17.4 µM (inactive) with 786-0; 14.2 µM (inactive) in the assay on DU-145; 17.9 µM (inactive) in the assay on ACHN; 19.4 µM (inactive) with SN12C; 16 µM (inactive) in the assay with M14; 11.5 µM (inactive) in the assay with MCF7. Further, the GI50 in the assay with HOP-92 was 21 µM (inactive).
On to `c1ccc2c(c1)/C(=N\NC1=NCCN1)c1nc3ccccc3nc1-2`, for which the GI50 was 0.923 µM (active) with SNB-75; 2.45 µM (inactive) in the assay with SF-295; 3.98 µM (inactive) in the assay with SR; 3.88 µM (inactive) with KM12; 1.36 µM (inactive) in the assay with SW-620; 5.85 µM (inactive) with NCI/ADR-RES. The GI50 was 17.6 µM (inactive) in the assay on OVCAR-4; 3.83 µM (inactive) with HL-60; 10.5 µM (inactive) in the assay with MDA-MB-231; 3.91 µM (inactive) in the assay with 786-0; 10.6 µM (inactive) in the assay with DU-145; 3.21 µM (inactive) in the assay with ACHN. For the same compound, the GI50 in the assay with SN12C is 8.51 µM (inactive); in the assay with M14 it was 6.65 µM (inactive); with MCF7, 3.32 µM (inactive); in the assay with HOP-92, 2.58 µM (inactive); in the assay on SF-539 it was 5.31 µM (inactive).
With `ON[C@H]1C[C@@H](n2cnc3c(NC4CC4)ncnc32)[C@H](O)[C@@H]1O`, the GI50 in the assay on SNB-75, in the assay on SF-295, in the assay on SR, in the assay on CAKI-1, in the assay on KM12 and in the assay with SW-620 was > 100 µM (inactive) each time. The GI50 with LOX IMVI, in the assay with NCI/ADR-RES, in the assay on OVCAR-4, in the assay with UO-31, in the assay on MDA-MB-231 and in the assay with 786-0 was > 100 µM (inactive) each time. In addition, the GI50 with DU-145, in the assay with ACHN, in the assay with SN12C, with M14, in the assay on MCF7 and in the assay with HOP-92 was > 100 µM (inactive) each time. Further, the GI50 in the assay on SF-539 is > 100 µM (inactive).
`C[C@@H](Br)[C@@H]1CC[C@H]2c3[nH]c4ccccc4c3CCN2C1`: the GI50 in the assay with SNB-75 was 18.5 µM (inactive); in the assay on SF-295, 19.5 µM (inactive); with SR, 16.5 µM (inactive); in the assay on CAKI-1, 16.6 µM (inactive); with KM12, 14.5 µM (inactive); in the assay with SW-620, 21.8 µM (inactive). Besides, the GI50 with LOX IMVI was 16.5 µM (inactive); in the assay on NCI/ADR-RES, 20.2 µM (inactive); in the assay on OVCAR-4 it was 28 µM (inactive); in the assay on UO-31, 24.8 µM (inactive); in the assay with HL-60, 20 µM (inactive); in the assay on MDA-MB-231, 16.1 µM (inactive). Moreover, the GI50 in the assay with 786-0 was 18.6 µM (inactive); in the assay with DU-145, 29.3 µM (inactive); in the assay with ACHN, 33.8 µM (inactive); in the assay with M14, 19.8 µM (inactive); in the assay with MCF7 it was 23.7 µM (inactive); in the assay on HOP-92, 18.1 µM (inactive).
